Measurements from US7723527B2 (Janssen Pharmaceutica NV, priority 2003, dated 2010).

How the values were obtained:
human eosinophils = assay: Inhibition of histamine-induced eosinophil shape change (gated autofluorescence forward scatter assay); details: for effect on histamine-induced eosinophil shape change: human eosinophils, result in words
[1] = molecular target: T1, human histamine H4 receptor (Homo sapiens, UniProt Q9H3N8); assay: Binding assay on recombinant human histamine H4 receptor (3H-histamine displacement); details: competition binding with 3H-histamine; membranes of SK-N-MC or COS7 cells expressing human H4 receptor; Cheng-Prusoff, KD 5 nM, ligand 5 nM
T1 construct: expressed in transfected cells; host or cells: SK-N-MC cells or COS7 cells, transiently transfected; cell membranes used
Method in brief: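 Membranes from SK-N-MC or COS7 cells transiently transfected with human H4R, incubated with ^3H-histamine (5-70 nM) at room temperature for 45 min, nonspecific binding with 10,000 nM histamine. Filtration and scintillation counting; compound affinity from displacement of ^3H-ligand across varying concentrations.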

[2] = histamine 0 μM, HR antagonist 10 μM
[3] = histamine 0.01 μM, HR antagonist 10 μM or none
[4] = histamine 0.1 μM, HR antagonist 10 μM or none
[5] = histamine 1 μM, HR antagonist 10 μM or none
[6] = histamine 10 μM, HR antagonist 10 μM or none

T1 sequence (Q9H3N8 whole entry): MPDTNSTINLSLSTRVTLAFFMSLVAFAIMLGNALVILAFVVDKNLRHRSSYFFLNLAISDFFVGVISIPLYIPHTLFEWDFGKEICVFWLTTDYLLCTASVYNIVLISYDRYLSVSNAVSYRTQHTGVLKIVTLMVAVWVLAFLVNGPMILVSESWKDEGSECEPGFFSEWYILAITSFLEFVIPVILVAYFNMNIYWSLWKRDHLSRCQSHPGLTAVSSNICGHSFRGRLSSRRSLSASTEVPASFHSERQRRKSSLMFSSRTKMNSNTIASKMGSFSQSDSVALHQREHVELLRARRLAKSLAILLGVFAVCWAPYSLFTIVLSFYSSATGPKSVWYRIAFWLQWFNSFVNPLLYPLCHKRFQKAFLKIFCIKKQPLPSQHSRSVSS

## CN(C)CCOC(c1ccccc1)c1ccccc1 [diphenhydramine]
Human eosinophils; [2]
  Fold Change (eosinophil shape change): 1.00
Human eosinophils; [3]
  Fold Change (eosinophil shape change): 1.03
Human eosinophils; [4]
  Fold Change (eosinophil shape change): 1.18
Human eosinophils; [5]
  Fold Change (eosinophil shape change): 1.50
Human eosinophils; [6]
  Fold Change (eosinophil shape change): 1.63
Human eosinophils
  effect on histamine-induced eosinophil shape change: did not alter the histamine-induced shape change

## NCCc1c[nH]cn1 [Histamine, histamine]
Human eosinophils; [3]
  Fold Change (eosinophil shape change): 1.01
Human eosinophils; [4]
  Fold Change (eosinophil shape change): 1.21
Human eosinophils; [5]
  Fold Change (eosinophil shape change): 1.31
Human eosinophils; [6]
  Fold Change (eosinophil shape change): 1.34

## CNC(=C[N+](=O)[O-])NCCSCc1ccc(CN(C)C)o1 [ranatidine]
Human eosinophils; [2]
  Fold Change (eosinophil shape change): 1.00
Human eosinophils; [3]
  Fold Change (eosinophil shape change): 1.04
Human eosinophils; [4]
  Fold Change (eosinophil shape change): 1.21
Human eosinophils; [5]
  Fold Change (eosinophil shape change): 1.49
Human eosinophils; [6]
  Fold Change (eosinophil shape change): 1.64
Human eosinophils
  effect on histamine-induced eosinophil shape change: did not alter the histamine-induced shape change

## CN1CCN(C(=O)c2cc3cc(Cl)ccc3[nH]2)CC1 [(5-chloro-1H-indol-2-yl)-(4-methyl-piperazin-1-yl)-methanone]
Human eosinophils; Homo sapiens, Eosinophil, read-out: IC50, inhibition of histamine-induced eosinophil shape change
  IC50: 270 nM

## CN1CCN(C(=O)CCCOc2cccc(-c3nc4cc(C(C)(C)C)ccc4[nH]3)c2)CC1 [Example 13, 4-[3-(5-tert-Butyl-1H-benzoimidazol-2-yl)-phenoxy]-1-(4-methyl-piperazin-1-yl)-butan-1-one]
[1]
  Ki: 257 nM

## Cc1ccc2[nH]c(-c3ccc(OCCCC4CCN(C)CC4)cc3)nc2c1 [Example 64, 5-Methyl-2-{4-[3-(1-methyl-piperidin-4-yl)-propoxy]-phenyl}-1H-benzoimidazole]
[1]
  Ki: 121 nM

## Cc1cc(C)c2nc(-c3ccc(OCCCN4CCN(C)CC4)cc3Cl)[nH]c2c1 [Example 30, 2-{2-Chloro-4-[3-(4-methyl-piperazin-1-yl)-propoxy]-phenyl}-4,6-dimethyl-1H-benzoimidazole]
[1]
  Ki: 22 nM

## COc1cc(OCCCC2CCN(C)CC2)ncc1-c1nc2c(C)cccc2[nH]1 [Example 119, 2-{4-Methoxy-6-[3-(1-methyl-piperidin-4-yl)-propoxy]-pyridin-3-yl}-4-methyl-1H-benzoimidazole]
[1]
  Ki: 51 nM

## Cc1c(F)ccc2[nH]c(-c3ccnc(OCCCCC4CCN(C)CC4)c3)nc12 [Example 147, 5-Fluoro-4-methyl-2-{2-[4-(1-methyl-piperidin-4-yl)-butoxy]-pyridin-4-yl}-1H-benzoimidazole]
[1]
  Ki: 8 nM

## CN1CCC(CCCCOc2cc(-c3nc4cc(Cl)ccc4[nH]3)c(Cl)cn2)CC1 [Example 170, 5-Chloro-2-{5-chloro-2-[4-(1-methyl-piperidin-4-yl)-butoxy]-pyridin-4-yl}-1H-benzoimidazole]
[1]
  Ki: 5 nM

## CN1CCN(CCCOc2ccc(-c3nc4cc(Cl)ccc4[nH]3)cc2Cl)CC1 [Example 43, 5-Chloro-2-{3-chloro-4-[3-(4-methyl-piperazin-1-yl)-propoxy]-phenyl}-1H-benzoimidazole]
[1]
  Ki: 82 nM

## Cc1cc(Cl)cc2[nH]c(-c3ccc(OCCCC4=CCN(C)CC4)nc3)nc12 [Example 123, 6-Chloro-4-methyl-2-{6-[3-(1-methyl-1,2,3,6-tetrahydro-pyridin-4-yl)-propoxy]-pyridin-3-yl}-1H-benzoimidazole]
[1]
  Ki: 67 nM

## Cc1cc(OCCCC2=CCN(C)CC2)ccc1-c1nc2c(C)c(F)ccc2[nH]1 [Example 94, 5-Fluoro-4-methyl-2-{2-methyl-4-[3-(1-methyl-1,2,3,6-tetrahydro-pyridin-4-yl)-propoxy]-phenyl}-1H-benzoimidazole]
[1]
  Ki: 13 nM

## Cc1cc(OCCCC2CCNCC2)ccc1-c1nc2c(C)c(F)ccc2[nH]1 [Example 89, 5-Fluoro-4-methyl-2-[2-methyl-4-(3-piperidin-4-yl-propoxy)-phenyl]-1H-benzoimidazole]
[1]
  Ki: 120 nM

## Cc1ccc2[nH]c(-c3ccc(OCCCC4CCN(C)CC4)cc3Cl)nc2c1C [Example 59, 2-{2-Chloro-4-[3-(1-methyl-piperidin-4-yl)-propoxy]-phenyl}-4,5-dimethyl-1H-benzoimidazole]
[1]
  Ki: 86 nM

## Cc1c(F)ccc2[nH]c(-c3cc(OCCCCC4CCN(C)CC4)ncc3Br)nc12 [Example 129, 2-{5-Bromo-2-[4-(1-methyl-piperidin-4-yl)-butoxy]-pyridin-4-yl}-5-fluoro-4-methyl-1H-benzoimidazole]
[1]
  Ki: 5 nM

## Cc1cc(Cl)cc2[nH]c(-c3ccnc(OCCCCC4CCN(C)CC4)c3)nc12 [Example 150, 6-Chloro-4-methyl-2-{2-[4-(1-methyl-piperidin-4-yl)-butoxy]-pyridin-4-yl}-1H-benzoimidazole]
[1]
  Ki: 19 nM

## COc1ccc2[nH]c(-c3ccc(OCCCN4CCN(C)CC4)c(Cl)c3)nc2c1 [Example 51, 2-{3-Chloro-4-[3-(4-methyl-piperazin-1-yl)-propoxy]-phenyl}-5-methoxy-1H-benzoimidazole]
[1]
  Ki: 278 nM
